Measured values published in ChEMBL document CHEMBL1141406, “Design, synthesis, and evaluation of naphthalene-sulfonamide antagonists of human CCR8” (J Med Chem, 2007).

Experiments:
[1] = biological target: Beta-1 adrenergic receptor (Homo sapiens) (UniProt P08588); assay: Inhibition of human adrenergic beta 1 receptor at 10 uM
[2] = Bioavailability in dog at 10 mg/kg, po and 1 mg/kg, iv; format: ADME, organism-based, Canis lupus familiaris; conditions: in vivo
[3] = Ratio of apparent permeability from basolateral to apical over apical to basolateral in Caco-2 cells; conditions: human, read-out: Selectivity ratio
[4] = Stability in mouse plasma; format: ADME, cell-free
[5] = Stability in rat at 10 mg/kg, po and 1 mg/kg, iv; format: ADME, organism-based; conditions: in vivo
[6] = biological target: Histamine H2 receptor (Rattus norvegicus) (UniProt P25102); assay: Inhibition of rat histamine H2 receptor at 10 uM
Chain of Histamine H2 receptor (Rattus norvegicus) (P25102 whole entry): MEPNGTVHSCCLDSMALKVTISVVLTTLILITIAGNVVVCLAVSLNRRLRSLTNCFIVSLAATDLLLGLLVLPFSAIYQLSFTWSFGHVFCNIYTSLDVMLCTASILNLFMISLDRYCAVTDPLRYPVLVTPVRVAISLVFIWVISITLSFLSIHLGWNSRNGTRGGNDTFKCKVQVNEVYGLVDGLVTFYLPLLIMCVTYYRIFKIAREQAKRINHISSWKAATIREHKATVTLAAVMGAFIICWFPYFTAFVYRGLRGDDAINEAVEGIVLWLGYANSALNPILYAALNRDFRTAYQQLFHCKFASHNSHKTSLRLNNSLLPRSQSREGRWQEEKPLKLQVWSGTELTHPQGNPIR

[7] = biological target: Adrenergic receptor alpha-1 (Homo sapiens) (UniProt P35348+P25100+P35368); assay: Inhibition of non selective adrenergic alpha-1 receptor at 10 uM; format: protein assay
[8] = Stability in dog at 10 mg/kg, po and 1 mg/kg, iv; format: ADME, organism-based, Canis lupus familiaris; conditions: in vivo
[9] = Intrinsic clearance in liver microsomes; conditions: human
[10] = biological target: C-C chemokine receptor type 8 (Homo sapiens, UniProt P51685); assay: Binding affinity to human CCR8 expressed in L1.2 cells by FMAT assay; format: cell-based
Chain of C-C chemokine receptor type 8 (P51685 whole entry): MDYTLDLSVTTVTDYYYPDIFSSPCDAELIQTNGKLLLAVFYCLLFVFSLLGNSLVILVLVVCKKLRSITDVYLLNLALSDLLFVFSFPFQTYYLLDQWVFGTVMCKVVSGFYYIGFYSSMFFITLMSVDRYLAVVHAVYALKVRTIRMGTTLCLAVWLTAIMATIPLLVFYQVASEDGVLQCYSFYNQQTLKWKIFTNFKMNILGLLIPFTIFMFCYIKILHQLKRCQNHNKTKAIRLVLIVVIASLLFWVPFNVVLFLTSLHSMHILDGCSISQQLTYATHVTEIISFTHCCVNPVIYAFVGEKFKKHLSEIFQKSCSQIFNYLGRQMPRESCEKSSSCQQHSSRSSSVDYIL

[11] = biological target: D(1A) dopamine receptor (Homo sapiens) (UniProt P21728); assay: Inhibition of human recombinant dopamine D1 receptor at 10 uM
[12] = biological target: 5-hydroxytryptamine receptor 2A (Homo sapiens) (UniProt P28223); assay: Inhibition of human 5HT2A receptor at 10 uM
[13] = Volume of distribution of steady state in rat at 10 mg/kg, po and 1 mg/kg, iv; format: ADME, organism-based; conditions: in vivo, read-out: Vss
[14] = Apparent permeability from basolateral to apical side of Caco-2 cells; format: ADME, cell-based; conditions: human
[15] = Apparent permeability from apical to basolateral side of Caco-2 cells; format: ADME, cell-based; conditions: human
[16] = biological target: T1, 5-hydroxytryptamine receptor 1A (Homo sapiens) (UniProt P08908); assay: Inhibition of human recombinant 5HT1A receptor at 10 uM
T1 sequence (whole entry): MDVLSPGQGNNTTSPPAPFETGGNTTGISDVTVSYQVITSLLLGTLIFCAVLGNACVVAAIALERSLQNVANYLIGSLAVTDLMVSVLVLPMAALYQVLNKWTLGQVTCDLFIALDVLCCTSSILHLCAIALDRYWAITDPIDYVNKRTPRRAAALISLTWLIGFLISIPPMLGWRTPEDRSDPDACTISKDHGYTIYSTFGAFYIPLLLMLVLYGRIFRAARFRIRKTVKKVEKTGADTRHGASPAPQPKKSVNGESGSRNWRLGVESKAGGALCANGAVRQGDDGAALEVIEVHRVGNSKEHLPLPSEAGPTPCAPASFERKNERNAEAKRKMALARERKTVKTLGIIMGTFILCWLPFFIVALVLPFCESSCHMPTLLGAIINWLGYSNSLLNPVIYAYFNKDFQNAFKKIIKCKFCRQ

Cytochrome P450 3A4 = Cytochrome P450 3A4 (Homo sapiens, UniProt P08684); assay: Inhibition of CYP3A4; format: ADME
Chain of Cytochrome P450 3A4 (P08684 whole entry): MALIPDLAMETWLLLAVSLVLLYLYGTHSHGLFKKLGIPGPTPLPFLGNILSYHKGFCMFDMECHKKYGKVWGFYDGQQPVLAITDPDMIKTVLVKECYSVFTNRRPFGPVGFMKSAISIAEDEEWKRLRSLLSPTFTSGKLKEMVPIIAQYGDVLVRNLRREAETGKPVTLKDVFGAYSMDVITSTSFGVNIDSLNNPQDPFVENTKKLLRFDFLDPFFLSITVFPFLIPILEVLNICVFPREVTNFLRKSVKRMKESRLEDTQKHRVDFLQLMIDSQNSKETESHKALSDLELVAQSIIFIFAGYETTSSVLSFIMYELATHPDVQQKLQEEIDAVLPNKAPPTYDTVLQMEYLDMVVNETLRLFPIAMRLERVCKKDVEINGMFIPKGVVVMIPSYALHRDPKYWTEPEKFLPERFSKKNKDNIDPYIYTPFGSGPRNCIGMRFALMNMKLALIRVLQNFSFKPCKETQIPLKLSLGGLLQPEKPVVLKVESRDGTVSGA

[17] = biological target: Sodium-dependent serotonin transporter (Rattus norvegicus) (UniProt P31652); assay: Inhibition of rat serotonin transporter at 10 uM
Chain of Sodium-dependent serotonin transporter (Rattus norvegicus) (P31652 whole entry): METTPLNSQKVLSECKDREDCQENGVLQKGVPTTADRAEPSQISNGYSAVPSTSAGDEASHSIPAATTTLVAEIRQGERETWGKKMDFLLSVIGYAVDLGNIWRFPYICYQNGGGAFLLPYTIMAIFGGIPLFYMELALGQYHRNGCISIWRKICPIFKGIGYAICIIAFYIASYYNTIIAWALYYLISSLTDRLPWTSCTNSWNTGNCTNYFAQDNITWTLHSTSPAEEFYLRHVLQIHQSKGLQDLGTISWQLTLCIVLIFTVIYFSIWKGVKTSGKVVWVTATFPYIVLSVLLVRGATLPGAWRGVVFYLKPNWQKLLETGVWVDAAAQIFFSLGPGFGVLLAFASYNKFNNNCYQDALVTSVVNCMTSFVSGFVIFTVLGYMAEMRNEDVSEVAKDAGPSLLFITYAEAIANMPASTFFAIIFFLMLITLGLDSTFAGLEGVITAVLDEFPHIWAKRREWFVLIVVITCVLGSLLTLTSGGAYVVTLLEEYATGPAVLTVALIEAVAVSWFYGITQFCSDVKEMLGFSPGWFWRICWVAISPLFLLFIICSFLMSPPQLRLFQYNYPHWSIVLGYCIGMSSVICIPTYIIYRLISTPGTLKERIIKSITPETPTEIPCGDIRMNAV

[18] = Clearance in dog at 10 mg/kg, po and 1 mg/kg, iv; format: ADME, organism-based, Canis lupus familiaris; conditions: in vivo
[19] = biological target: T2, Cholecystokinin receptor type A (Rattus norvegicus) (UniProt P30551); assay: Inhibition of rat CCKA at 10 uM
T2 sequence (whole entry): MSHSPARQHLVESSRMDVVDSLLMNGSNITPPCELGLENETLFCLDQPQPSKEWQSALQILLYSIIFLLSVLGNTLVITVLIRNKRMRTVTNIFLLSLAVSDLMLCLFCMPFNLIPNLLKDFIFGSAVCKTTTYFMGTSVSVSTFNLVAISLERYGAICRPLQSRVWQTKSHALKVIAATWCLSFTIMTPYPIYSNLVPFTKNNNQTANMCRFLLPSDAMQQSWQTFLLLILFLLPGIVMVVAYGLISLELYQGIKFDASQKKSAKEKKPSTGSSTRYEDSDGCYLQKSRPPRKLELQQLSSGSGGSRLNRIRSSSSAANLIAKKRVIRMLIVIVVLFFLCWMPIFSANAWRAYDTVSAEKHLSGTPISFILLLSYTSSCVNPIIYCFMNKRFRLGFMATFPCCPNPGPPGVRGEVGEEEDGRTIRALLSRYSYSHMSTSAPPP

[20] = biological target: Muscarinic acetylcholine receptor (Homo sapiens) (UniProt P20309+P08173+P11229+P08172+P08912); assay: Inhibition of peripheral non-selective guinea pig muscarinic receptor at 10 uM; format: protein assay; conditions: Cavia porcellus, target entry is the homologue from another species
[21] = biological target: Voltage-gated inwardly rectifying potassium channel KCNH2 (Homo sapiens, UniProt Q12809); assay: Binding affinity to hERG expressed in HEK293 cells; format: cell-based
Chain of Voltage-gated inwardly rectifying potassium channel KCNH2 (Q12809 whole entry): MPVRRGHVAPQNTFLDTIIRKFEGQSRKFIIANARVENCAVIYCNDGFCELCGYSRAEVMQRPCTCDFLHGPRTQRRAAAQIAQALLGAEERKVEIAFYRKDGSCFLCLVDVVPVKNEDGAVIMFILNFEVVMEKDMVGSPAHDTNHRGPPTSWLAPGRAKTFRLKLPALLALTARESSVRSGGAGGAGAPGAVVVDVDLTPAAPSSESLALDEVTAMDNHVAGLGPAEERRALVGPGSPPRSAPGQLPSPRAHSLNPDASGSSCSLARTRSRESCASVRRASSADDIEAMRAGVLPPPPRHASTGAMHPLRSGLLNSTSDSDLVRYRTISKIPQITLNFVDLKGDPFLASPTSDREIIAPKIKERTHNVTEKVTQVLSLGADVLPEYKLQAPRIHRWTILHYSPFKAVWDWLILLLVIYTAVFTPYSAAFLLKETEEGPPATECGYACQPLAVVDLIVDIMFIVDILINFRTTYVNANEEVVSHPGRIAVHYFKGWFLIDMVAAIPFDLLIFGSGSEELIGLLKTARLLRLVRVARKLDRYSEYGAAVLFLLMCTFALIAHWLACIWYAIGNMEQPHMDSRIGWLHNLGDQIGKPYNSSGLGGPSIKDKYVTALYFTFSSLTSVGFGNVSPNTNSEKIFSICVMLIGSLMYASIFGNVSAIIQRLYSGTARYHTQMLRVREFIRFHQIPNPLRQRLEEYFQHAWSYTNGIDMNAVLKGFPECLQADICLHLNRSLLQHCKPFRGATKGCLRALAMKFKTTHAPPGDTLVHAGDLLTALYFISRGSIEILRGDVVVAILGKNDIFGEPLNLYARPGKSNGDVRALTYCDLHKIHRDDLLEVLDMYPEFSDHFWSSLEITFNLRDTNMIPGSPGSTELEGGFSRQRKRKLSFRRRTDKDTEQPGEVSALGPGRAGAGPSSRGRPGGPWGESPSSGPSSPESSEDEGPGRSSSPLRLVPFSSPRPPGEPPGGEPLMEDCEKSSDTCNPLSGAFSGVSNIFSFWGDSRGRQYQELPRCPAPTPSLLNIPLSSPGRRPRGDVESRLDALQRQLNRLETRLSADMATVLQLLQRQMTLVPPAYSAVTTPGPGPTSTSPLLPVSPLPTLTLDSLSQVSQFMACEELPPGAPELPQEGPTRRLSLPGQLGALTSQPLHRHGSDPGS

[22] = biological target: Sodium-dependent dopamine transporter (Rattus norvegicus) (UniProt P23977); assay: Inhibition of rat dopamine transporter at 10 uM
Chain of Sodium-dependent dopamine transporter (Rattus norvegicus) (P23977 whole entry): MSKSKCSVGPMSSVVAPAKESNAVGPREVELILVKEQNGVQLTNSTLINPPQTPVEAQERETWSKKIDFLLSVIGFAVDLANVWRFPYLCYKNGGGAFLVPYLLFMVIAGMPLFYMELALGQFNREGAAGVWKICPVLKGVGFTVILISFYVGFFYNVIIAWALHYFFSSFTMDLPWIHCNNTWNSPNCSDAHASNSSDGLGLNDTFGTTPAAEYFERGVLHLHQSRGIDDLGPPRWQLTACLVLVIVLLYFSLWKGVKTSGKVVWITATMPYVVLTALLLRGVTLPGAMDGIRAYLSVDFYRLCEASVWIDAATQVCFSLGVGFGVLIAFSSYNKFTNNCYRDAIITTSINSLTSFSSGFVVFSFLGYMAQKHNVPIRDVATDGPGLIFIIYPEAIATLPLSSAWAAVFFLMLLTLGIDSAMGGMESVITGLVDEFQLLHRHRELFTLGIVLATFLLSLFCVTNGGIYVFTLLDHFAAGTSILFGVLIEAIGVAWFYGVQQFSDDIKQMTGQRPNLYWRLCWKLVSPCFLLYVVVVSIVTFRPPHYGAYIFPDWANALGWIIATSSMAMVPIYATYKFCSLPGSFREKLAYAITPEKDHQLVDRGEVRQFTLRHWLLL

Rattus norvegicus [23] = species on record: Rattus norvegicus; assay: Inhibition of rat non-selective opiate receptor at 10 uM
[24] = Volume of distribution of steady state in dog at 10 mg/kg, po and 1 mg/kg, iv; format: ADME, organism-based, Canis lupus familiaris; conditions: in vivo, read-out: Vss
Rattus norvegicus [25] = species on record: Rattus norvegicus; assay: Inhibition of rat calcium channel L type at dihydropyridine site at 10 uM
[26] = Bioavailability in rat at 10 mg/kg, po and 1 mg/kg, iv; format: ADME, organism-based; conditions: in vivo
[27] = biological target: Beta-2 adrenergic receptor (Homo sapiens) (UniProt P07550); assay: Inhibition of human recombinant adrenergic beta 2 receptor at 10 uM
Chain of Beta-2 adrenergic receptor (Homo sapiens) (P07550 whole entry, looked up): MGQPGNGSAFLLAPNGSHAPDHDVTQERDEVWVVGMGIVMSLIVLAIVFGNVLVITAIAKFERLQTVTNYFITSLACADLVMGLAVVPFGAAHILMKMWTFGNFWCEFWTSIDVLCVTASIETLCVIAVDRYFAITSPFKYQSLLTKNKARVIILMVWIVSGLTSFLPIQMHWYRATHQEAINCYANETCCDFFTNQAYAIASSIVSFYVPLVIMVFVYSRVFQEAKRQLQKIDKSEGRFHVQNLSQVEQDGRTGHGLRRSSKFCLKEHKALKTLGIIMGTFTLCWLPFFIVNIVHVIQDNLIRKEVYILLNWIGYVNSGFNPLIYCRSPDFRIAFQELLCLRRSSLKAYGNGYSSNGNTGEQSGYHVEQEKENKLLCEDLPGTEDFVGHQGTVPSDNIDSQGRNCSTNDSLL

Rattus norvegicus [28] = species on record: Rattus norvegicus; assay: Inhibition of rat calcium channel L type at benzothiazepine site at 10 uM
[29] = biological target: 5-hydroxytryptamine receptor 1B (Homo sapiens) (UniProt P28222); assay: Inhibition of 5HT1B receptor at 10 uM
Chain of 5-hydroxytryptamine receptor 1B (Homo sapiens) (P28222 whole entry): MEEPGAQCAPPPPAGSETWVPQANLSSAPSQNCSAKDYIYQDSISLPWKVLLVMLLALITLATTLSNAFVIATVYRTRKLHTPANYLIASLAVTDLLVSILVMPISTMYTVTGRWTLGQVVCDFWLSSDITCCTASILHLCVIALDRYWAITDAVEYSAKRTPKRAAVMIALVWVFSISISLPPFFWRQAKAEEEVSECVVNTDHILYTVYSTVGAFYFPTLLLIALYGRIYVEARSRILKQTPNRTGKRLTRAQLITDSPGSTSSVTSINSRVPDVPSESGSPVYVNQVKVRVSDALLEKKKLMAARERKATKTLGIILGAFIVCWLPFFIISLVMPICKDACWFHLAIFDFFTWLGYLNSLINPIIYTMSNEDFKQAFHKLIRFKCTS

[30] = Clearance in rat at 10 mg/kg, po and 1 mg/kg, iv; format: ADME, organism-based; conditions: in vivo

Chain of Beta-1 adrenergic receptor (Homo sapiens) (P08588 whole entry, looked up): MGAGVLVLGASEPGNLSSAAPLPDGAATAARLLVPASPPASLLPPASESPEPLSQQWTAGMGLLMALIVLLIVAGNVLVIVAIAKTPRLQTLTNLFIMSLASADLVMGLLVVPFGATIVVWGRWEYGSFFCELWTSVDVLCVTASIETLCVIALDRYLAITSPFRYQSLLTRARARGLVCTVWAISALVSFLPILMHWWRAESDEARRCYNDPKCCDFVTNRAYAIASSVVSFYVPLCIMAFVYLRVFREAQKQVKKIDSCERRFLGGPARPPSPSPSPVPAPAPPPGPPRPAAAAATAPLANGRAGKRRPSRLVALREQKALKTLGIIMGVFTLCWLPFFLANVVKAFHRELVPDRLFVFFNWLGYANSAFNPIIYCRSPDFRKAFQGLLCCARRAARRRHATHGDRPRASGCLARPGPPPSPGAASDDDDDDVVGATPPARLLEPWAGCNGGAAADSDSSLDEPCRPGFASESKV

inhibition [1]: 2.44% | bioavailability [2]: 10% | half-life [4]: 8.2 h | half-life [5]: 2.6 h | inhibition [6]: 9.16% | inhibition [7]: -8.21% | half-life [8]: 3.7 h | CLint scaled [9]: 95 mL/min/kg | Ki [10]: 0.0016 µM | inhibition [11]: -5.14% | inhibition [12]: 18.4% | Vd [13]: 1.6 L/kg | Papp B→A [14]: 24 ×10⁻⁶ cm/s | Papp A→B [15]: 17 ×10⁻⁶ cm/s | inhibition [16]: 10.5% | IC50 (Cytochrome P450 3A4): > 10 µM | inhibition [17]: 12% | clearance [18]: 7 mL/min/kg | inhibition [19]: -1.01% | inhibition [20]: 15.6% | inhibition [22]: -9.19% | inhibition (Rattus norvegicus [23]): 21.4% | Vd [24]: 1.5 L/kg | inhibition (Rattus norvegicus [25]): 5.81% | bioavailability [26]: 2% | inhibition [27]: 21.5% | inhibition (Rattus norvegicus [28]): 10.2% | inhibition [29]: 7.13% | clearance [30]: 23.3 mL/min/kg
SMILES: CCOC(=O)N1CCC(NS(=O)(=O)c2ccc(NC(=O)c3ccccc3C)c3ccccc23)CC1
efflux ratio [3]: 1.4 | Ki [21]: > 10 µM
